# US7528224B1, “Peptide for triggering an immune reaction against tumor cells” (Immatics Biotechnologies GmbH, priority 1999, dated 2009)
# Ends that are not written are not given here.
# Assays:
# T2 cells = assay: 51Cr release cytotoxic T cell activity on peptide-pre-incubated T2 cells; type: cell-based, human; conditions: 4 h; for killing of T2 cells pre-treated with the same peptide by the cytotoxic T cells induced with the peptide: T2 cells pre-incubated with 50 μg/ml of exactly this peptide; for killing of T2 cells pre-treated with other peptides by the cytotoxic T cells induced with the peptide: T2 cells pre-incubated with other peptides
# Method: T2 cells which are distinguished by the fact that they can generate HLA-A2, but cannot present peptides synthesized by themselves via this MHC class I molecules, were pre-incubated with 50 μg/ml of synthetic peptide from 1.2 for two hours and marked with [^51Cr]-sodium chromate in RP10 at 37° C. for one hour. In each case 10^4 of these cells were transferred into each of a well of a 96-well-plate. Cytotoxic T cells that were generated before according to 1.3 were added, so that, respectively, an end volume of 200 μl per well was reached. Subsequently, incubation took place for four hours at 37° C. If now the cytotoxic T cells kill the cells that were labeled with ^51Cr before, they lyse these cells, and the ^51Cr contained in the cells is released. At the end of the experiment in the cell supernatants taken off, the released radioactivity is determined by counting in a β-counter. In that way, a measure for the cytotoxic activity of T cells is obtained.
# cytotoxic T cells = assay: Induction of cytotoxic T cells in vitro with peptide-pulsed dendritic cells; type: cell-based, human; conditions: dendritic cells incubated with 50 μg/ml synthetic peptide, autologous mononuclear cells
# Method: As e.g. described by Brossart, P., et al., Cancer Res 58 (1998), pages 732 ff.; first of all, mononuclear cells of peripheral blood were isolated from buffy coat preparations of heparinized blood of three healthy donators by Ficoll/Paque (Gibco-BRL, Grand Island, N.Y.) density-gradient centrifugation. The cells were seeded in cell culture bowls in RP10 medium.
# 5×10^5 dendritic cells from 1.1 were incubated with 50 μg/ml synthetic peptide from 1.2 for two hours, washed, and incubated with 2.5×10^6 autologous, i.e. coming from the same donators, mononuclear cells of periphery blood in RP10 medium. Additionally to the control peptides and the potentially HLA-A2 binding peptides the dendritic cells were partly incubated with 50 μg/ml of a PAN-HLA-DR-binding peptide which represents a T helper epitope.
# After seven days of cultivation, the cells were again stimulated by adding autologous, mononuclear cells of peripheral blood pre-incubated with the synthetic peptide from 1.2. On the first, third and fifth day, respectively, 1 ng/ml human recombinant IL-2 (Genzyme) was added. The cytokine IL-2 is necessary for the cultivation and reproduction of cytotoxic T cells. Altogether, stimulation was effected up to three times in an interval of a week.
Sequence,killing of T2 cells pre-treated with the same peptide by the cytotoxic T cells induced with the peptide (T2 cells),killing of T2 cells pre-treated with other peptides by the cytotoxic T cells induced with the peptide (T2 cells),induction of cytotoxic T cells in vitro by means of dendritic cells (cytotoxic T cells)
LLLLTVLTV [SEQ ID NO: 2],could kill only those cells which were pre-treated with the peptide with the sequence SEQ ID NO: 2,behave in the same way,able to induce cytotoxic T cells
STAPPVHNV [SEQ ID NO: 1],able to specifically kill,not able to kill,able to induce cytotoxic T cells
